Measurements reported in ChEMBL document CHEMBL5108062 (J Med Chem, 2022).

Target: Dipeptidyl peptidase 4 (Homo sapiens, UniProt P27487)
Test: Inhibition of human recombinant DPP4 using H-Gly-Pro-AMC as substrate incubated for 30 mins by fluorescence based microplate reader assay

Dipeptidyl peptidase 4, sequence (P27487 whole entry): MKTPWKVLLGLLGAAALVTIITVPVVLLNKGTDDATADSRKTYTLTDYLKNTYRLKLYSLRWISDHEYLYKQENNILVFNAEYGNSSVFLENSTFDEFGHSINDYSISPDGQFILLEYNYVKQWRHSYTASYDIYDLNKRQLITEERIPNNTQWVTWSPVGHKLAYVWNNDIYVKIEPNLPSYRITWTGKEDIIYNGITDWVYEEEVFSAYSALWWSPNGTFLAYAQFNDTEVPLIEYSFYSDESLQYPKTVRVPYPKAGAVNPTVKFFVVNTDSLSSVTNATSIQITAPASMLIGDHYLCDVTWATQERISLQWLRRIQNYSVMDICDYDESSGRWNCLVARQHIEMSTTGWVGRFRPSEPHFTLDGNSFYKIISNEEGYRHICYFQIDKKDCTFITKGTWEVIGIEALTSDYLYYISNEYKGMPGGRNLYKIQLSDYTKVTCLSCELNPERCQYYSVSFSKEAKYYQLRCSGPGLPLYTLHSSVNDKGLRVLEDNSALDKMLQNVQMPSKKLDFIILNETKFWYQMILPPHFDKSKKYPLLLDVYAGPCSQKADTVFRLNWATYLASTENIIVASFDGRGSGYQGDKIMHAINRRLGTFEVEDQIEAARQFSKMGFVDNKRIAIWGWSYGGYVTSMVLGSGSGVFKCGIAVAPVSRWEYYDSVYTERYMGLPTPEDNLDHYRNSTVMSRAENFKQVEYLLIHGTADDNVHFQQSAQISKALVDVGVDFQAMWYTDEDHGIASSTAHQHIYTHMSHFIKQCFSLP

## COc1cc(S(N)(=O)=O)ccc1OCCC(N=[N+]=[N-])C1COc2ccccc2O1 (stereo unspecified)
  IC50: 327 µM
